Reference: ChEMBL document CHEMBL3407421, “Design, synthesis, X-ray crystallographic analysis, and biological evaluation of thiazole derivatives as potent and selective inhibitors of human dihydroorotate dehydrogenase” (J Med Chem, 2015)
pIC50: −log10 of the molar value.

Legend:
[1] = molecular target: Dihydroorotate dehydrogenase (quinone), mitochondrial (Homo sapiens, UniProt Q02127)
Description: Inhibition of human DHODH using dihydroorotate substrate by DCIP assay

[2] = Retention time of the compound; assay type: physicochemical
[3] = molecular target: T1, Dihydroorotate dehydrogenase (Plasmodium falciparum, UniProt Q54A96); assay: Inhibition of Plasmodium falciparum DHODH using dihydroorotate substrate by DCIP assay
T1 sequence (Q54A96 whole entry): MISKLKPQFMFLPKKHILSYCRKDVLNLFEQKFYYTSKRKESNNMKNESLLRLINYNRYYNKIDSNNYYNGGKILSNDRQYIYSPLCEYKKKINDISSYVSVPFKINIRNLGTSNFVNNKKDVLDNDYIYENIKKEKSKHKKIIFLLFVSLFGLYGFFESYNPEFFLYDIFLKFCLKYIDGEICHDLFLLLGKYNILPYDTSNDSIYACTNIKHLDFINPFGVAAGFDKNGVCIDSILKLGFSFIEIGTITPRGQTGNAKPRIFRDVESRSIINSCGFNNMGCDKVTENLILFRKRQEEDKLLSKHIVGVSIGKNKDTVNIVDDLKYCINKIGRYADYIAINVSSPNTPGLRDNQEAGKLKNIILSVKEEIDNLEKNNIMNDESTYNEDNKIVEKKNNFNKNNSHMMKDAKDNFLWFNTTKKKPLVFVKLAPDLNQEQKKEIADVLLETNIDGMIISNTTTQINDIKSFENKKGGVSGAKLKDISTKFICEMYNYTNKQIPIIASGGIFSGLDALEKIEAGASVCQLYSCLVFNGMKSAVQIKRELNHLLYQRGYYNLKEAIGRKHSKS

Rattus norvegicus = assay: Toxicity in ip dosed bovine type-2 collagen-induced Wistar rat arthritic model assessed as change in body weight administered as qd for 28 days starting day after immunization; assay type: organism-based; conditions: in vivo, 672 h

Chain of Dihydroorotate dehydrogenase (quinone), mitochondrial (Q02127 whole entry): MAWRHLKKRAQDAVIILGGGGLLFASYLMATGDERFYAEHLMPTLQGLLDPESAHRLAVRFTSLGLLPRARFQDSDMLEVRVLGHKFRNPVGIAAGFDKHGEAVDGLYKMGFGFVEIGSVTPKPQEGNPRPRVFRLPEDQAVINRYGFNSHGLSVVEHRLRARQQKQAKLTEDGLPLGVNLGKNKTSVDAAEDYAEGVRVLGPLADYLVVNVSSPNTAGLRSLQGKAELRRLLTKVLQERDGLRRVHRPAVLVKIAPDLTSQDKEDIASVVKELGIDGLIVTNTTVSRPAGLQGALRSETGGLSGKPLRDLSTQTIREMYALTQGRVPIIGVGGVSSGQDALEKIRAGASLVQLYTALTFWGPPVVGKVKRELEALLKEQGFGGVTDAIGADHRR

Row | Structure (SMILES) | pIC50 [1] | Retention_time [2] [min] | pIC50 [3] | Activity (Rattus norvegicus)
1 | CC(=O)c1sc(Nc2ccc3cc4ccccc4cc3c2)nc1C | < 5.00 | 16.95 | < 5.00 | –
2 | CCOC(=O)c1sc(Nc2ccc(C)c(C)c2)nc1C | – | 16.56 | < 5.00 | –
3 | CCOC(=O)c1sc(Nc2ccc(Br)cc2)nc1C | – | 17.56 | 5.61 | –
4 | CC(=O)c1sc(Nc2ccc(C)c(C)c2)nc1C | 5.41 | 12.41 | 5.83 | –
5 | CCOC(=O)c1sc(Nc2ccc(Br)c(C(F)(F)F)c2)nc1-c1ccccc1 | – | 11.33 | < 5.00 | –
6 | CCOC(=O)c1sc(Nc2ccc(-c3cccc(OC)c3)cc2)nc1-c1ccccc1 | < 5.00 | 10.45 | < 5.00 | –
7 | CCOC(=O)c1sc(Nc2ccc3c(c2)CCC3)nc1-c1ccccc1 | – | 10.42 | < 5.00 | Non-toxic
8 | CCOC(=O)c1sc(Nc2ccc(C)c(F)c2)nc1-c1ccccc1 | – | 9.56 | < 5.00 | –
9 | CCOC(=O)c1sc(Nc2ccc(C)c(C)c2)nc1NC(=O)c1ccccc1 | – | 7.51 | < 5.00 | –
10 | CCOC(=O)c1sc(Nc2ccc(Oc3ccccc3)c(Cl)c2)nc1-c1ccccc1 | < 5.00 | 11.24 | < 5.00 | –
11 | CCOC(=O)c1sc(Nc2ccc(Cl)c(C(F)(F)F)c2)nc1N | < 5.00 | 7.1 | < 5.00 | –
12 | CCOC(=O)c1sc(Nc2ccc(Cl)c(C(F)(F)F)c2)nc1-c1ccccc1 | – | 11.06 | < 5.00 | –
13 | CCOC(=O)c1sc(Nc2c(F)cc(-c3cccc(OC)c3)cc2F)nc1-c1ccccc1 | – | 9.51 | < 5.00 | –
14 | CCOC(=O)c1sc(Nc2ccc3ccccc3c2)nc1-c1ccccc1 | – | – | < 5.00 | –
15 | CCOC(=O)c1sc(Nc2ccc(C(F)(F)F)cc2)nc1-c1ccccc1 | – | 9.86 | < 5.00 | –
16 | CCOC(=O)c1sc(Nc2ccc(Br)cc2C)nc1-c1ccccc1 | < 5.00 | 10.27 | < 5.00 | –
17 | CCOC(=O)c1sc(Nc2ccc(C(C)(C)C)cc2)nc1-c1ccccc1 | – | 21.11 | < 5.00 | –
18 | CCOC(=O)c1sc(Nc2ccc(C)c(F)c2)nc1C1CC1 | – | 9.96 | < 5.00 | –
19 | CCOC(=O)c1sc(Nc2ccc3c(c2)OCO3)nc1-c1ccccc1 | – | 7.28 | < 5.00 | –
20 | CC(=O)c1sc(Nc2ccc3ccccc3c2)nc1C | 6.25 | 13.39 | 6.06 | –
21 | CC(=O)c1sc(Nc2ccc(Br)cc2)nc1C | < 5.00 | 13.52 | < 5.00 | –
22 | CCOC(=O)c1sc(Nc2ccc(OCc3c(F)cccc3Cl)c(Cl)c2)nc1-c1ccccc1 | < 5.00 | 9.95 | < 5.00 | –
23 | CCOC(=O)c1sc(Nc2ccc(-c3cccc(OC)c3)cc2F)nc1-c1ccccc1 | < 5.00 | 10.96 | < 5.00 | –
24 | CCOC(=O)c1sc(Nc2ccc(OC)cc2)nc1-c1ccccc1 | – | 7.54 | < 5.00 | –
25 | CC(=O)c1sc(Nc2ccc(C(C)(C)C)cc2)nc1C | 5.44 | 14.61 | < 5.00 | –
26 | CCOC(=O)c1sc(Nc2ccc(Cl)c(Cl)c2)nc1-c1ccccc1 | – | 11.11 | < 5.00 | –
27 | CC(=O)c1sc(Nc2ccc(C)c(F)c2)nc1C | < 5.00 | 5.82 | < 5.00 | –

Row | Structure (SMILES) | pIC50 [1] | Retention_time [2] [min] | pIC50 [3] | Activity (Rattus norvegicus)
28 | CCOC(=O)c1sc(Nc2ccc(Cl)c(C(F)(F)F)c2)nc1NC(=O)C1CC1 | – | 7.75 | < 5.00 | –
29 | CCOC(=O)c1sc(Nc2ccc(C)c(C)c2)nc1NC(=O)C1CC1 | < 5.00 | 7.61 | < 5.00 | –
30 | CCOC(=O)c1sc(Nc2ccc(Cl)cc2)nc1-c1ccccc1 | – | 9.69 | < 5.00 | –
31 | CCOC(=O)c1sc(Nc2ccc(C)c(C)c2)nc1C1CC1 | – | 10.18 | < 5.00 | –
32 | CCOC(=O)c1sc(Nc2ccc(C)c(Cl)c2)nc1C(C)(C)C | – | 13.12 | < 5.00 | –
33 | CCOC(=O)c1sc(Nc2ccc(C)c(Cl)c2)nc1C1CC1 | – | 11.22 | < 5.00 | –
34 | CC(=O)c1sc(Nc2ccc(Br)c(C(F)(F)F)c2)nc1C | 5.72 | 16.48 | < 5.00 | –
35 | CCOC(=O)c1sc(Nc2ccc(OCc3ccccc3)c(Cl)c2)nc1-c1ccccc1 | < 5.00 | 10.92 | < 5.00 | –
36 | CCOC(=O)c1sc(Nc2ccc3c(c2)CCCC3)nc1-c1ccccc1 | – | 11.36 | < 5.00 | –
37 | CC(=O)c1sc(Nc2ccc(Cl)c(C(F)(F)F)c2)nc1C | 5.63 | 16.17 | 5.37 | –
38 | CC(=O)c1sc(Nc2ccccc2)nc1C | < 5.00 | 9.94 | < 5.00 | –
39 | CCOC(=O)c1sc(Nc2ccc(C)c(F)c2)nc1C | – | 8.14 | < 5.00 | –
40 | CC(=O)c1sc(Nc2ccc(C)c(Cl)c2)nc1C | 5.40 | 14.38 | 6.20 | –
41 | CCOC(=O)c1sc(Nc2ccc3ccccc3c2)nc1C | – | 9.01 | < 5.00 | –
42 | CCOC(=O)c1sc(Nc2ccc(C)c(Cl)c2)nc1-c1ccccc1 | – | 10.7 | < 5.00 | –
43 | CCOC(=O)c1sc(Nc2ccc(-c3ccccc3)cc2F)nc1-c1ccccc1 | < 5.00 | 11.33 | < 5.00 | –
44 | CCOC(=O)c1sc(Nc2ccc(C)c(C)c2)nc1-c1ccccc1 | – | 9.84 | < 5.00 | –
45 | CCOC(=O)c1sc(Nc2ccc(-c3ccccc3)cc2)nc1-c1ccccc1 | < 5.00 | 10.81 | < 5.00 | –
46 | CCOC(=O)c1sc(Nc2ccc(C)c(C)c2)nc1C(C)(C)C | – | 12.16 | < 5.00 | –
47 | CN(Cc1cnc2nc(N)nc(N)c2n1)c1ccc(C(=O)N[C@@H](CCC(=O)O)C(=O)O)cc1 [METHOTREXATE] | – | – | – | Non-toxic
48 | CCOC(=O)c1sc(Nc2ccc(C)c(C)c2)nc1N | – | 9.57 | < 5.00 | –
49 | CCOC(=O)c1sc(Nc2ccc(C)c(Cl)c2)nc1C | – | 18.44 | < 5.00 | –
50 | CCOC(=O)c1sc(Nc2ccccc2)nc1-c1ccccc1 | – | 7.96 | < 5.00 | –
51 | CCOC(=O)c1sc(Nc2cc(Cl)cc(Cl)c2)nc1-c1ccccc1 | – | 11.83 | < 5.00 | –
52 | CCOC(=O)c1sc(Nc2ccc(C)c(F)c2)nc1C(C)(C)C | – | 11.92 | < 5.00 | –
53 | CCOC(=O)c1sc(Nc2ccc3cc4ccccc4cc3c2)nc1-c1ccccc1 | – | 12.09 | < 5.00 | –
54 | CCOC(=O)c1sc(Nc2ccc(Cl)c(C(F)(F)F)c2)nc1NC(=O)c1ccccc1 | < 5.00 | 8.06 | < 5.00 | –
